Assay [1] relates to SRS-A biosynthesis or release. Kind of assay: SRS-A biosynthesis or release inhibitory activity (ovalbumin-challenged sensitized guinea pig lung fragments, bioassay on guinea pig ileum). It counts as cell-based, guinea pig (male Hartley). As to conditions: Cavia porcellus, read-out: Inhibition rate (SRS-A biosynthesis or release). The protocol: [I] SRS-A biosynthesis or release inhibitory activity
SRS-A biosynthesis or release inhibitory activity was examined according to Koda et al. [Nippon yakurigakkaishi, 66, 194(1970)] and Kono-Watanabe et al. [J. Immunology, 125, 946(1980)].
Male Hartley guinea pigs weighing 350 to 450 g were sensitized by injecting once each 1 ml of an ovalbumin (100 mg/ml) into gluteus and peritoneal cavity. Four weeks after the injection, the animals were killed and then immediately the lung was perfused with cooled Tyrode's solution to remove blood. The lung was chopped into about 2 mm fragments and 500 mg of the fragments were suspended in 4.84 ml of Tyrode's solution, to which 0.01 ml of the test compound dissolved in dimethylsulfoxide (DMSO) was added. After incubation at 37° C. for 10 minutes, 0.15 ml of an ovalbumin (10 mg/ml) was added, followed by incubation at 37° C. for 20 minutes. In control, DMSO was added and the reaction was conducted in the same manner. The reaction mixture was filtered with gauze.
An amount of SRS-A in the filtrate was bioassayed using guinea pig ileum; i.e. the ileum (length: 2 to 3 cm) was suspended in Magnus tube containing aerated Tyrode's solution at 31° C. and, after the plateau of contraction was obtained, an amount of SRS-A in the above filtrate was bioassayed in the presence of 1 μM of atropine and 1 μM of pyrilamine. Inhibition rate (%) was calculated from a contraction in control as 100.

For assay [2], the system named is homologous passive cutaneous anaphylaxis (PCA). Kind of assay: Inhibitory activity against homologous passive cutaneous anaphylaxis (PCA) in rats. It counts as in vivo, rat (male Wistar). As to conditions: 100 mg/kg, oral, 1 hour before the antigen. As for the experimental part: [II]Inhibitory activity against homologous passive cutaneous anaphylaxis (PCA) in rats
Antiserum was prepared according to I. Mota [Immunology, 7, 681(1964)] and the PCA reaction was conducted according to Maruyama et al. [Nippon yakurigakkaishi, 74, 179(1978)].
(1) Preparation of antiserum
An ovalbumin solution (2 mg/ml) was injected intramuscularly into both thighs of male Wistar rats weighing 200 to 260 g in a volume of 0.5 ml/100 g body weight, and pertussis vaccine (Bordetella pertussis, 2×10^10 /ml, Chibaken Kessei Kenkyujo) was intraperitoneally administered at 1 ml/rat. Twelve days later, blood was taken from posterior aorta under ether anesthesia and antiserum was stored at -80° C.
Group of 4 male Wistar rats weighing 180 to 210 g were employed. Back of the animals was shaved and each 0.05 ml of antiserum (1:32 dilution) was injected intradermally at four sites on the back. After 48 hours, 1 ml of a mixture of ovalbumin (1 mg/ml) and Evans blue (5 mg/ml) was injected intravenously into the tail. 30 Minutes later, the animals were killed under ether anesthesia. The blue-dyed area (mm^2) formed was measured and an inhibition rate(%) was calculated as compared with control.
Test compound suspended in a 2.5% acacia containing 0.2% Tween 80 was administered orally in a volume of 0.5 ml/100 g body weight 1 hour before the antigen. Tranilast was administered orally 30 minutes before the antigen.

Assay [3] relates to antigen-induced anaphylactic shock death. Kind of assay: Protective effect against anaphylactic shock in actively sensitized guinea pigs. It is filed as in vivo, guinea pig (male). The conditions noted are these: Cavia porcellus; 100 mg/kg, oral, 30 minutes before antigen inhalation; survival 90 minutes or more; read-out: Protecting Effect (Number of test animal survivied/Number of test animal) (converted). The protocol:
[III] Protective effect against anaphylactic shock in actively sensitized guinea pigs
Antigen-induced anaphylactic shock death was observed according to John P. Devlin [Pulmonary and Antiallergic Drugs, John Wiley & Sons, 155 (1985)].
Each 100 mg/kg of ovalbumin dissolved in physiological saline was injected into peritoneal cavity and into gluteus of male guinea pigs weighing 250 to 350 g. 3 Days later, the animals were further injected intraperitoneally with ovalbumin (100 mg/kg). Those animals were employed for testing 3 to 4 weeks after first sensitization. Actively sensitized guinea pigs were pretreated subcutaneously with pyrilamine (1 mg/kg, 30 min.) to suppress histamine-dependent response and with propanolol ([…], 10 min.) to enhance the response induced by other than histamine before the antigen.
The animal was placed in a desiccator with a capacity of about 5 l and 0.5% aqueous solution of ovalbumin was inhaled with ultrasonic type nebulizer for five minutes. Anaphylactic shock death was observed and the animals survived for 90 minutes or more after antigen were estimated to be protected. The compounds of the present invention and antiasmatic agent were administered orally 30 minutes before the antigen inhalation. The control received vehicle alone similarly.

For assay [4], the target named is T1, epidermal growth factor acceptor-tyrosinekinase complex (Homo sapiens, UniProt P00533).
T1 construct: endogenous in cells; host or cells: A-431 (membrane specimen, not solubilized)
Kind of assay: Tyrosinekinase inhibitory activity (A-431 membrane specimen, EGF-stimulated, [γ-32P]ATP). It is filed as biochemical, human (A-431 cell line derived from human cancerous cell). The conditions noted are these: read-out: Inhibition rate (tyrosinekinase). The protocol:
Tyrosinekinase inhibitory activity of the compound of the present invention was measured by employing a method for measuring tyrosinekinase activity by G. Carpentor or by S. Cohen et al. [J. Biol. Chem., 254, 4884 (1979); J. Biol. Chem., 257, 1523 (1982)].
Cell line A-431 derived from human cancerous cell was cultured at 37° C. under the condition of 5% CO2 in Dulbecco's modified Eagle medium (made by DAINIPPON PHARMACEUTICAL CO., LTD.) containing 10% fetal bovine serum, 50 μg/ml of streptomycin, 50 IU/ml of penicillin G and 50 μg/ml of canamycin. The obtained cells were treated according to the above Cohen or Graham et al. to give membrane specimen containing epidermal growth factor acceptor-tyrosinekinase complex (hereinafter referred to as "membrane specimen"). The membrane specimen was employed in the following measurement without solubilization.
Sample dissolved in dimethylsulfoxide was added to a mixture of 20 mM of N-2-hydroxyethylpyperadino-N'-2-ethanesulfonate buffer (pH 7.4), 1 mM of MnCl2, 7.5 μg of bovine serum albumin and the membrane specimen (10 μg as protein). After incubation at 0° C. for 5 minutes, 100 ng of epidermal growth factor (hereinafter referred to as "EGF" was added and the mixture was further incubated at 0° C. for 15 minutes. [γ-^32 P]ATP (3000 Ci/mmol, 0.1 μCi) was added to make final volume of 70 μl. After incubation at 0° C. for 15 minutes, 50 μl of the reaction solution was soaked into Wattman 3 MM filter paper and immediately the reaction was stopped by 10% trichloroacetic acid-10 mM sodium pyrophosphate aqueous solution. The filter paper was sufficiently washed with the same solution and then washed with ethanol and dried. Radioactivity present in the filter paper was measured by liquid scintillation counter (A). Similarly, radioactivity was measured in case of the reaction without EGF (B), the reaction without the sample (C), and the reaction without both EGF and the sample (D) as a control.
Tyrosinekinase inhibition rate (%) was calculated by the following equation. [formula]

Molecules are shown by their SMILES.

T1 sequence (P00533 25-1210): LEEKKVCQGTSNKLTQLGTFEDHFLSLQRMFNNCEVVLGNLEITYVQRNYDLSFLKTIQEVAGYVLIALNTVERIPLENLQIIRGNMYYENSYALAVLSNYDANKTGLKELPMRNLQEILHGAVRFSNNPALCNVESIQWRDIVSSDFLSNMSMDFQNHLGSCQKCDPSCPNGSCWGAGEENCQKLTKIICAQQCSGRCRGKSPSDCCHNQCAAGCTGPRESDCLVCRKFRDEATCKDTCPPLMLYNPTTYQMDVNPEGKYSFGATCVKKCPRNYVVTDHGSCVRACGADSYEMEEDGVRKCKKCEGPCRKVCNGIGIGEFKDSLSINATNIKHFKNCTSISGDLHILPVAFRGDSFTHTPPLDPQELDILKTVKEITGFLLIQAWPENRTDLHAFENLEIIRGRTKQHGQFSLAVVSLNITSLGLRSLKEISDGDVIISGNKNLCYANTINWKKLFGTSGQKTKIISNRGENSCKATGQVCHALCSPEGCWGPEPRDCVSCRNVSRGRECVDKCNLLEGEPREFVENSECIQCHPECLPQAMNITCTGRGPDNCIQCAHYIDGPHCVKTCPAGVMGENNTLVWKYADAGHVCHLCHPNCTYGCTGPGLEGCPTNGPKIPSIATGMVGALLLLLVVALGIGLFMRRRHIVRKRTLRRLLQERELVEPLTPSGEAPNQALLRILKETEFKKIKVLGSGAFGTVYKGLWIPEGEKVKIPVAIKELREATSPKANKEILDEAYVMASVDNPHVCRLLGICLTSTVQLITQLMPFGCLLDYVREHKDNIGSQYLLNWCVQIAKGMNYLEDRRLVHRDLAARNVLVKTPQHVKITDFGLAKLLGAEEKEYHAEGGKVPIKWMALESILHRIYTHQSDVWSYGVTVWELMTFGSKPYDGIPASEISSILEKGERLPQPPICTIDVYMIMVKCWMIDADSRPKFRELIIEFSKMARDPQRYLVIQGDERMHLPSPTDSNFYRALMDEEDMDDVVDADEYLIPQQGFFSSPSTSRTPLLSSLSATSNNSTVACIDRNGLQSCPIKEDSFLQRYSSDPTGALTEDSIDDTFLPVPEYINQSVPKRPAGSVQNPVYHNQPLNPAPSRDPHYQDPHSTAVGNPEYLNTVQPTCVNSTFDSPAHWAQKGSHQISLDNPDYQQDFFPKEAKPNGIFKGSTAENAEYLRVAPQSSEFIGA
T1 sequence (P01132 977-1029 partner limits assumed): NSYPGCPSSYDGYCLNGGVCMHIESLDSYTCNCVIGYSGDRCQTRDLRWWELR

With `CCOc1cc(C=C2CCOC2=O)cc(CSc2ccccc2)c1O` [XXIV], the inhibition (in general, the change of the read-out against control, counted positive when it falls) at 100 µM in assay [1] stood at 28%. For the same molecule, the “Inhibition rate (PCA reaction, blue-dyed area)” value (“Inhibition rate” for short) in assay [2] was 26%. Further, the responders at 100 mg/kg in assay [3] is 20%. In addition, in assay [4], the inhibition at 10 µM was found to be 33% and the inhibition at 100 µM worked out at 50%.

Take `CCOc1cc(C=C2C(=O)NN(c3ccccc3)C2=O)cc(CSc2ccccc2)c1O` [XXXI]: the inhibition at 100 µM was 59% in assay [1] and 100% in assay [4]. The “Inhibition rate” value in assay [2] was 30%. Also, the responders at 100 mg/kg in assay [3] is 20%. Moreover, the inhibition at 10 µM in assay [4] was determined as 92%.

For `CCOc1cc(C=C2CCNC2=O)cc(CSc2ccccc2)c1O` [XXVII], the inhibition at 100 µM in assay [1] stood at 100%. For the same molecule, in assay [2], the “Inhibition rate” value is listed as 25%. Further, the responders at 100 mg/kg in assay [3] was 75%. In assay [4], the inhibition at 10 µM came out at 96% and the inhibition at 100 µM came out at 100%.

For `CCOC(=O)C(=Cc1cc(CSc2ccccc2)c(O)c(OCC)c1)S(C)(=O)=O` [XXII], the inhibition at 100 µM in assay [1] worked out at 27%. The “Inhibition rate” value in assay [2] was determined as 26%. Besides, the responders at 100 mg/kg in assay [3] was 20%. Besides, in assay [4], the inhibition at 10 µM amounted to 64% and the inhibition at 100 µM was found to be 80%.

As to `CCOc1cc(C=C(C#N)C(N)=O)cc(CSc2ccccc2)c1O` [I], the inhibition at 100 µM in assay [1] was found to be 92%. Besides, in assay [2], the “Inhibition rate” value was 21%. In assay [3], the responders at 100 mg/kg is 40%. Further, in assay [4], the inhibition at 10 µM came to 100% and the inhibition at 100 µM amounted to 100%.

These data come from US4853403A, “3-phenylthiomethylstyrene derivative, process for preparing the same, and antiallergic agent and tyrosinekinase inhibiting agent containing the same” (Kanegafuchi Kagaku Kogyo Kabushiki Kaisha, priority 1985, dated 1989).
